What was measured:
Assay type in all cases: biochemical
[1] = biological target: T1, δ-Selinene Synthase (ag4) (SEQ ID No. 20) (Abies grandis, UniProt O64404); assay: Product profile of recombinant δ-selinene synthase in vitro (preparative assay, GLC-MS); settings: from [1-3H]farnesyl diphosphate; total ion current chromatogram
T1 construct: made in house; host or cells: E. coli XL1-Blue/pGAG4 or E. coli BL21(DE3)/pSBAG4
T1 sequence (O64404 1-581): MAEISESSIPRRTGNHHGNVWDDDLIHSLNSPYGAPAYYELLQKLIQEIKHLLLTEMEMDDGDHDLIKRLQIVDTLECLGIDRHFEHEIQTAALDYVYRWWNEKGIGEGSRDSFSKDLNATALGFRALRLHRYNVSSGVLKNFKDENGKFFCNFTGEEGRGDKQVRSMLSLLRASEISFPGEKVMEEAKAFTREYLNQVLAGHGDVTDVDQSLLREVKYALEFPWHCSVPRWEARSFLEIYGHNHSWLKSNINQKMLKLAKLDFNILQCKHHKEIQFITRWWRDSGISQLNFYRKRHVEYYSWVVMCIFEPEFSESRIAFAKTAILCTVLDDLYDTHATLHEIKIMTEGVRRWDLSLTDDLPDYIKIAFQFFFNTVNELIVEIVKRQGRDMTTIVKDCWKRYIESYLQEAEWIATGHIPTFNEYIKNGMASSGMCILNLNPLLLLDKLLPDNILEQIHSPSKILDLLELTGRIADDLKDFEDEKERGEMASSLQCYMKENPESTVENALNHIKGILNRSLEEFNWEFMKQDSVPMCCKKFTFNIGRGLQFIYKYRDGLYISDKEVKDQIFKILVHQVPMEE
Experimental: (§1) For preparative incubations, the assay was scaled to 5 ml containing the total protein extracted from 100 ml of bacterial culture and 30 μM [1-^3H]farnesyl diphosphate, and the incubation time was extended to 8 h. Aliquots of the olefin fraction and the fraction containing oxygenated metabolites (diethyl ether eluate) were evaluated by liquid scintillation counting, and were analyzed by radio-GLC (Croteau, R. & Cane. D. E. (1985) Methods Enzymol. 110, 383-405; Satterwhite, D. M. & Croteau, R. (1988) J. Chromatogr. 452, 61-73) using a Gow-Mac 550P chromatograph that was equipped with a 3.18 mm×3.66 m stainless steel column packed with 5% OV17 (50% phenyl:50% methylsiloxane) on 100/120 mesh Gas Chrom Q (Alltech) and programmed from 150° C. to 220° C. at 2° C./min with He as carrier. The elution of co-injected standards was monitored with the Gow-Mac thermal conductivity detector (250° C. and 150 mA) and the radioactivity signal was continuously monitored with a Nuclear Chicago Model 8731 gas proportional counter; output data were processed using Perkin-Elmer Turbochrom Software.
(§2) Expression of Sesquiterpene Synthase cDNAs AG4 (SEQ ID No:19) and AG5. (SEQ ID No:23) in E. coli. Both putative sesquiterpene cyclase cDNAs (SEQ ID Nos:19 and 23) were expressed in bacterial strains E. coli XL1-Blue/pGAG4, E. coli XL1-Blue/pGAG5, E. coli BL21(DE3)/pSBAG4, and E. coli BL21(DE3)/pSBAG5 as set forth in EXAMPLE 7. Bacteria were grown to A600=0.5 at 37° C. in 5 ml or 100 ml of LB medium supplemented with 100 μg ampicillin/ml or 30 μg kanamycin/ml as determined by the vector. Cultures were then induced by addition of 1 mM isopropyl-1-thio-β-D-galactopyranoside and grown for another 12 h at 20° C. Cells were harvested by centrifugation (2000×g, 10 min) and resuspended in either 1 ml or 5 ml sesquiterpene synthase assay buffer (EXAMPLE 2). Cells were disrupted by sonication (Braun-Sonic 2000 with microprobe at maximum power for 15 seconds at 0-4° C.) and the homogenates were cleared by centrifugation (18,000×g, 10 min). Preparative assays were employed to generate product for GLC-MS analysis, as set forth in EXAMPLE 2, with quantification of composition via the total ion current chromatogram.
Product Profile of Recombinant δ-Selinene Synthase (SEQ ID No:20) In Vitro.

[2] = biological target: T2, γ-Humulene Synthase (ag5) (SEQ ID No: 24) (Abies grandis, UniProt O64405); assay: Product profile of recombinant γ-humulene synthase in vitro (preparative assay, GLC-MS); settings: from [1-3H]farnesyl diphosphate; total ion current chromatogram
T2 construct: For further subcloning of the amplified, full-length cDNA into the pSBETa vector for high-level expression, the pGAG5 insert was amplified; made in house; host or cells: E. coli XL1-Blue/pGAG5 or E. coli BL21(DE3)/pSBAG5
T2 sequence (O64405 1-593): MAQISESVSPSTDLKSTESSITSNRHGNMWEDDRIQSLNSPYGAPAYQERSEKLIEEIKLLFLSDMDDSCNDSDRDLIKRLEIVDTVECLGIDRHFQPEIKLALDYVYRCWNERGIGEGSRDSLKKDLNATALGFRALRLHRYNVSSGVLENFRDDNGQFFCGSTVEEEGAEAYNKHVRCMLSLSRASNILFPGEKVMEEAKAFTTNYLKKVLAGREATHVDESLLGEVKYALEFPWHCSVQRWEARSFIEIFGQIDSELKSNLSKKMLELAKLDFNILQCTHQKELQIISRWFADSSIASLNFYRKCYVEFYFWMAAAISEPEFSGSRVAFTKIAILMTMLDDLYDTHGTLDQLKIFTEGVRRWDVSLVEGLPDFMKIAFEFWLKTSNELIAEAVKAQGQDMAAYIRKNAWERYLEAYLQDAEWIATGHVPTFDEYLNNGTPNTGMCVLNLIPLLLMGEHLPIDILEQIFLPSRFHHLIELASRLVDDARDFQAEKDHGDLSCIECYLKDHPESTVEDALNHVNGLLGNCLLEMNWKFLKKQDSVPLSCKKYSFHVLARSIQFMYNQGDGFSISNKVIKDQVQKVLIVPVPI
Experimental: as §1, §2
Product Profile of Recombinant γ-Humulene Synthase (SEQ ID No:24) In Vitro.

[3] = biological target: T3, γ-humulene synthase (SEQ ID No:24) (Abies grandis, UniProt O64405); assay: Kinetic parameters, metal ion requirement and substrate specificity of recombinant γ-humulene synthase; settings: GLC-MS
T3 construct: For further subcloning of the amplified, full-length cDNA into the pSBETa vector for high-level expression, the pGAG5 insert was amplified; made in house; host or cells: E. coli XL1-Blue/pGAG5 or E. coli BL21(DE3)/pSBAG5
T3 sequence (O64405 1-593): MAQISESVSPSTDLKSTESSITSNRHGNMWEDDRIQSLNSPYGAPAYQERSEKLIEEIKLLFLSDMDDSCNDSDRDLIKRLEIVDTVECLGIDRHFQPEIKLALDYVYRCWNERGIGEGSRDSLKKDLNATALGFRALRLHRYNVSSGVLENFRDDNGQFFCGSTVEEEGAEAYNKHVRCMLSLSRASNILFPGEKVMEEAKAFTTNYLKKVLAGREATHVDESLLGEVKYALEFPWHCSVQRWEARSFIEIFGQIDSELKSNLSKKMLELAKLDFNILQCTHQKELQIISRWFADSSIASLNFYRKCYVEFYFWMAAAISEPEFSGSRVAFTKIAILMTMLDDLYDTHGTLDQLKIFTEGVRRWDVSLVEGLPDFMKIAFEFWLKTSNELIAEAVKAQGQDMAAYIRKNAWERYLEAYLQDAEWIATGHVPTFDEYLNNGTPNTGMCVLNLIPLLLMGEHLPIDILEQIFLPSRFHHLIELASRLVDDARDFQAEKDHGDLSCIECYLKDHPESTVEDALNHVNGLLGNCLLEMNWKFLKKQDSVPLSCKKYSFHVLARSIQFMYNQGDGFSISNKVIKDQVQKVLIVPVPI
Experimental: (§3) The assay for recombinant sesquiterpene synthase (cyclase) activity was performed in 1 ml of buffer (extraction buffer without MnCl2 or the polymeric adsorbents) containing 3.5 μM [1-^3H]farnesyl diphosphate and the total protein extracted from a 5 ml bacterial culture to produce 10^5-10^6 dpm of product in 2 h at 31° C. The incubation mixture was overlaid with 1 ml pentane to trap volatile products. After incubation, the reaction mixture was extracted with pentane (3×1 ml) and the combined extract was passed through a MgSO4-silica gel column to provide the terpene hydrocarbon fractions as before. The columns were subsequently eluted with 3×1 ml of ether to collect any oxygenated products, and an aliquot of each fraction was taken for liquid scintillation counting to determine conversion rate. The monoterpene synthase and diterpene synthase activity assays were similarly performed as described in detail elsewhere (LaFever, R. E., et al., (1994) Arch. Biochem. Biophys. 313, 139-149; Bohlmann, J., et al., (1997) J. Biol. Chem. 272, 21784-21792; Lewinsohn, E., et al., (1991) Plant Physiol. 96, 38-43).
(§4) The substrate specificity and other kinetic. parameters of γ-humulene synthase (SEQ ID No:24) and δ-selinene synthase (SEQ ID No:20) were investigated in order to confirm the identification and classification of these enzymes. […] Neither of these sesquiterpene synthases requires K^+ or other monovalent cation for activity.
(§5) Substrate specificity of δ-selinene synthase (SEQ ID No:20) and γ-humulene synthase (SEQ ID No:24) was evaluated by comparing farnesyl diphosphate (C15) to geranyl diphosphate (C10) and geranylgeranyl diphosphate (C20) at saturation as precursors of the respective terpene olefins. […] The identities of the monoterpene products produced by the sesquiterpene synthases were determined by GLC-MS and are set forth in FIG. 4.

[4] = biological target: T4, δ-selinene synthase (SEQ ID No:20) (Abies grandis, UniProt O64404); assay: Kinetic parameters, metal ion requirement and substrate specificity of recombinant δ-selinene synthase; settings: GLC-MS
T4 construct: made in house; host or cells: E. coli XL1-Blue/pGAG4 or E. coli BL21(DE3)/pSBAG4
T4 sequence (O64404 1-581): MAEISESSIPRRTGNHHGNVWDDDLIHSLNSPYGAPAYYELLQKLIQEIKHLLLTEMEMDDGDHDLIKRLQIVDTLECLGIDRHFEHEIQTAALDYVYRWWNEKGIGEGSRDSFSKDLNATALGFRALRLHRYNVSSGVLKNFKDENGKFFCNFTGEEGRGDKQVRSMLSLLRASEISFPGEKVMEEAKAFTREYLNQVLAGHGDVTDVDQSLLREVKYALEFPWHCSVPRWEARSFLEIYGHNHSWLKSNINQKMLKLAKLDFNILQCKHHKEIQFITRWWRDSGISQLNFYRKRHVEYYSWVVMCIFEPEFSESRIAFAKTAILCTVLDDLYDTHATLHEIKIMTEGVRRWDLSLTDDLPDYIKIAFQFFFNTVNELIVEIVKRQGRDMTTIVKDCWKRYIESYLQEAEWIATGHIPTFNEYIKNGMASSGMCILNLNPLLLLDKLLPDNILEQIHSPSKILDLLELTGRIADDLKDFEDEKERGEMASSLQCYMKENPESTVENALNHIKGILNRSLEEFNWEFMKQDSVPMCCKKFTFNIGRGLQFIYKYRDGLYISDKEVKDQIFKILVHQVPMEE
Experimental: as §3, §4, §5

Row | SMILES | sesquiterpene products of δ-selinene synthase, % [1] | sesquiterpene products of γ-humulene synthase, % [2] | monoterpene product formed from geranyl diphosphate [3] | monoterpene product formed from geranyl diphosphate [4]
1 | C=C1CCCC2(C)CCC(C(C)C)=CC12 (stereo not shown) [Sibirene] | 0.7% | 15.1% | – | –
2 | C=C(C)[C@H]1CC=C(C)CC1 [Limonene] | – | – | principal monoterpene product | principal monoterpene product
